This passage reports IC50 results from patent US20100168103A1, “DIARYL PIPERIDINE COMPOUNDS AS CALCIUM CHANNEL BLOCKERS” (NEUROMED PHARMACEUTICALS LTD., priority 2006, published 2010).

Like-named read-outs stand apart in the source and are kept apart here.

The target of the experiment is T1, rat brain N-type calcium channel subunits (α1B+α2δ+β1b cDNA subunits) (Rattus norvegicus, UniProt Q02294).
T1 construct: expressed in transfected cells; host or cells: HEK 293
The experiment is described as follows: N-type calcium channel block, whole cell patch clamp in transfected HEK 293 cells. The format is cell-based. The following applies: holding potential −80 mV to +10 mV. How it is done:
N-type calcium channel blocking activity was assayed in human embryonic kidney cells, HEK 293, stably transfected with the rat brain N-type calcium channel subunits (α1B+α2δ+β1b cDNA subunits). Alternatively, N-type calcium channels (α1B+α2δ+β1b cDNA subunits), L-type channels (α1C+α2δ+β1b cDNA subunits) and P/Q-type channels (α1A+α2δ+β1b cDNA subunits) were transiently expressed in HEK 293 cells. Briefly, cells were cultured in Dulbecco's modified eagle medium (DMEM) supplemented with 10% fetal bovine serum, 200 U/ml penicillin and 0.2 mg/ml streptomycin at 37° C. with 5% CO2. At 85% confluency cells were split with 0.25% trypsin/1 mM EDTA and plated at 10% confluency on glass coverslips. At 12 hours the medium was replaced and the cells transiently transfected using a standard calcium phosphate protocol and the appropriate calcium channel cDNA's. Fresh DMEM was supplied and the cells transferred to 28° C./5% CO2. Cells were incubated for 1 to 2 days prior to whole cell recording.
Whole cell patch clamp experiments were performed using an Axopatch 200B amplifier (Axon Instruments, Burlingame, Calif.) linked to a personal computer equipped with pCLAMP software. The external and internal recording solutions contained, respectively, 5 mM BaCl2, 10 mM MgCl2, 10 mM HEPES, 40 mM TEACl, 10 mM glucose, 87.5 mM CsCl (pH 7.2) and 108 mM CsMS, 4 mM MgCl2, 9 mM EGTA, 9 mM HEPES (pH 7.2). Currents were typically elicited from a holding potential of −80 mV to +10 mV using Clampex software (Axon Instruments). Typically, currents were first elicited with low frequency stimulation (0.067 Hz) and allowed to stabilize prior to application of the compounds. The compounds were then applied during the low frequency pulse trains for two to three minutes to assess tonic block, and subsequently the pulse frequency was increased to 0.2 Hz to assess frequency dependent block. Data were analyzed using Clampfit (Axon Instruments) and SigmaPlot 4.0 (Jandel Scientific).

Setting [1] is: low frequency stimulation 0.067 Hz (tonic block), 5 mM BaCl2, read-out: IC50 @ 0.067 Hz.
Where [2] appears, read: pulse frequency 0.2 Hz (frequency dependent block), 5 mM BaCl2, read-out: IC50 @ 0.2 Hz.

T1 sequence (Q02294 whole entry): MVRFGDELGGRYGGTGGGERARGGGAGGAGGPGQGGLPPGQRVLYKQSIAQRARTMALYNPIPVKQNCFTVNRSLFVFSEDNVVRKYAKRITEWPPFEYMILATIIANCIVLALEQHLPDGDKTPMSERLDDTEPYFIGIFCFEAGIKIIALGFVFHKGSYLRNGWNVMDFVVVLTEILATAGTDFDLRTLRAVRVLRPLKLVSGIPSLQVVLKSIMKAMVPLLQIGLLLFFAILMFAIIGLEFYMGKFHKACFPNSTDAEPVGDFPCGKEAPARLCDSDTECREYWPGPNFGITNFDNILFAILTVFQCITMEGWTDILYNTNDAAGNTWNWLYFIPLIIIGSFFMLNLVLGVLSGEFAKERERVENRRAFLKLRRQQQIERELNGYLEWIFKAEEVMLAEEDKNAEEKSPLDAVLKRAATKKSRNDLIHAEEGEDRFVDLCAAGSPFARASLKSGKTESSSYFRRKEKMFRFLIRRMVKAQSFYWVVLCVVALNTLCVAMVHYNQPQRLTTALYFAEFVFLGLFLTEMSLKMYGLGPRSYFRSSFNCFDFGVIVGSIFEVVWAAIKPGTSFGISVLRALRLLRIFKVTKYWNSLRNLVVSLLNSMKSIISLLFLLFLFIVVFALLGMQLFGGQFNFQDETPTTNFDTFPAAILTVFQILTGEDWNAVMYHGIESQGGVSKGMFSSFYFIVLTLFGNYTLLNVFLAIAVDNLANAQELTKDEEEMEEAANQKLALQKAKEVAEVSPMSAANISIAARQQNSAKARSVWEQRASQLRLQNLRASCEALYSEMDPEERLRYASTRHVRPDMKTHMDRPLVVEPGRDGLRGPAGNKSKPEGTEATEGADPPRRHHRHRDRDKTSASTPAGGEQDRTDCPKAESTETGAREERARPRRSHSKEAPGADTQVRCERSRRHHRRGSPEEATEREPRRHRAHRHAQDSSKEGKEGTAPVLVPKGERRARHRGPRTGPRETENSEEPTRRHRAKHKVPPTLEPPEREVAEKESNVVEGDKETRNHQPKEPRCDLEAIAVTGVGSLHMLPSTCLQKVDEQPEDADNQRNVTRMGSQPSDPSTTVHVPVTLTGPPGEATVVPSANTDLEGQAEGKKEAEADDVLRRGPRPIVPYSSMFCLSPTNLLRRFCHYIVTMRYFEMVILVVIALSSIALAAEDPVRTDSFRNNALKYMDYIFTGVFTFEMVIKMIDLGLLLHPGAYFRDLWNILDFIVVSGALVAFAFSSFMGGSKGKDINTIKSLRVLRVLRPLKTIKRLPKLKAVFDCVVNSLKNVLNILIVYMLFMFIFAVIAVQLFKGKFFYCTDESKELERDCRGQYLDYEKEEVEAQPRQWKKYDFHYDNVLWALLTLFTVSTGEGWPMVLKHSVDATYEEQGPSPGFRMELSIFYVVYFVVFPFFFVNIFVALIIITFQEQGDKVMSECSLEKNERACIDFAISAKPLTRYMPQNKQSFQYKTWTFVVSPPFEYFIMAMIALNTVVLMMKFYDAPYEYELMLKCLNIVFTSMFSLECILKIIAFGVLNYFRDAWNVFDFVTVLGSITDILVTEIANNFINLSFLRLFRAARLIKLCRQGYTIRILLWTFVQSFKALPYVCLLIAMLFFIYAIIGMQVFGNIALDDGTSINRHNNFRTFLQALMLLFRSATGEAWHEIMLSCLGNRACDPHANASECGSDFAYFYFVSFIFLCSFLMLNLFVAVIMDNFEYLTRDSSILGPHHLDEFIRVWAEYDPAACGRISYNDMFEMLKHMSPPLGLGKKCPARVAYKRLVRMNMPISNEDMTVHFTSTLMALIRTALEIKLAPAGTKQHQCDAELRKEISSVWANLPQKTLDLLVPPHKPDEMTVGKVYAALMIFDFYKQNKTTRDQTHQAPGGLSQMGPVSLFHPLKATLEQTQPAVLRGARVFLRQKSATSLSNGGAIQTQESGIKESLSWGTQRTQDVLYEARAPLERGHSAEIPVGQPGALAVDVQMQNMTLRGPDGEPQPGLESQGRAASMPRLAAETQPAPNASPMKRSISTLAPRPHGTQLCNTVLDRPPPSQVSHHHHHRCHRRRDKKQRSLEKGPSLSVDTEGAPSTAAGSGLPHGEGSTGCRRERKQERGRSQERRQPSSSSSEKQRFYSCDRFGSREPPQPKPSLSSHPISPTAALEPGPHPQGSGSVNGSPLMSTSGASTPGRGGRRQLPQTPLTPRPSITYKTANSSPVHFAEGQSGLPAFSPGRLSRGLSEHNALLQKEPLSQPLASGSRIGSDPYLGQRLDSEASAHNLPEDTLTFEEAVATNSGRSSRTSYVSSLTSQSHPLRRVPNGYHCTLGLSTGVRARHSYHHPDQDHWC
T1 sequence (P54290 25-944 partner limits assumed): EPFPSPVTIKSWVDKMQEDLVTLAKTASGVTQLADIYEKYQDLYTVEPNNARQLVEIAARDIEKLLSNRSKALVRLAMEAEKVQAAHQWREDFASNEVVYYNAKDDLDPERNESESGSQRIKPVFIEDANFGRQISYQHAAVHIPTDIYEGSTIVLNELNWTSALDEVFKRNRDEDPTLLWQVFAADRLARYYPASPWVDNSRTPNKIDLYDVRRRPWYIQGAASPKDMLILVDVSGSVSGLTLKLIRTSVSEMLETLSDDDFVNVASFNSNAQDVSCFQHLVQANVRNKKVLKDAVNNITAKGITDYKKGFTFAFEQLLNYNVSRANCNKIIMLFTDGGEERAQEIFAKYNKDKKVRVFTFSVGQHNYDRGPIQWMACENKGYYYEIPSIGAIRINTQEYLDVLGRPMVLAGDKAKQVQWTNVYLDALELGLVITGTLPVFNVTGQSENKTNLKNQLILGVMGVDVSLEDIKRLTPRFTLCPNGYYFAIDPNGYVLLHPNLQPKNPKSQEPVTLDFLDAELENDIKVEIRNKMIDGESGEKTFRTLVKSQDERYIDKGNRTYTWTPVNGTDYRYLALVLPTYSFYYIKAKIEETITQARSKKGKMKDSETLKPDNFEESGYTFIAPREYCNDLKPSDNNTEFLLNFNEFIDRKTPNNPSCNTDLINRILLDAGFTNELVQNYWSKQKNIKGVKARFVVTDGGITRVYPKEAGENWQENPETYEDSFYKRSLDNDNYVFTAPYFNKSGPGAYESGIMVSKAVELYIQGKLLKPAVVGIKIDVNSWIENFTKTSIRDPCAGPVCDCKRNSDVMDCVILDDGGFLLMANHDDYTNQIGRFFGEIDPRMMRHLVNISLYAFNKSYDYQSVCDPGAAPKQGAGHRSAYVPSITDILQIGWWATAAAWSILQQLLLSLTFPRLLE
T1 sequence (P54290 945-1091 partner limits assumed): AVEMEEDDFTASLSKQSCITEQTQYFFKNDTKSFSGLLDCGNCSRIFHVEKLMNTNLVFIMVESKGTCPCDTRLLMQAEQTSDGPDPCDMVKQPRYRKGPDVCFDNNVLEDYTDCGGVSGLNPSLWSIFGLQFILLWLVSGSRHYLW
T1 sequence (P54283 whole entry partner): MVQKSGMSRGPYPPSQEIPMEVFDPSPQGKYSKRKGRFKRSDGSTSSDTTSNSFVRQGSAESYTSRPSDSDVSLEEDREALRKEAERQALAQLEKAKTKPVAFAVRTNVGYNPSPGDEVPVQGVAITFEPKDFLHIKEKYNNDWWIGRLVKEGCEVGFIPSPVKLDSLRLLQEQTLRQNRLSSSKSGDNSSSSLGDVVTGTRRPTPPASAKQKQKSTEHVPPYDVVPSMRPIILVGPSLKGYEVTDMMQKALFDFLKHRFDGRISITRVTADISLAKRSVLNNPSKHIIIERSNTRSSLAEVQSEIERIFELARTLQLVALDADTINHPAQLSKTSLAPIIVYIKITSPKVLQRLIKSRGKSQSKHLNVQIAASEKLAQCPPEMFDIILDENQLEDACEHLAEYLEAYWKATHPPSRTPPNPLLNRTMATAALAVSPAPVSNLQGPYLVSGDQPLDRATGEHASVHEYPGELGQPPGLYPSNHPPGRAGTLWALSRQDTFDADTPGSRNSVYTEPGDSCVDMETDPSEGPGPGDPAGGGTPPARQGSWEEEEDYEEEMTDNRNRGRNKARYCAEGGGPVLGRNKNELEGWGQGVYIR

For orientation: IC50 means the concentration that inhibits the measured activity by half. As for `Cc1ccccc1C(CC(=O)N1CCC(CN2CCN(C(C)(C)C)CC2)CC1)c1ccccc1C` [Compound 67, 1-(4-((4-tert-butylpiperazin-1-yl)methyl)piperidin-1-yl)-3,3-di-o-tolylpropan-1-one], the half-inhibitory concentration (IC50) by setting is: under setting [1], 530 nM; under setting [2], 250 nM.
`CC(C)(C)N1CCN(CC2CCN(C(=O)CCCCC(c3ccccc3)c3ccccc3)CC2)CC1` [Compound 74, 1-(4-((4-tert-butylpiperazin-1-yl)methyl)piperidin-1-yl)-6,6-diphenylhexan-1-one]: the IC50 was found to be 420 nM under setting [1] and 290 nM under setting [2].
For the molecule `CC(C)(C)N1CCN(C(=O)C2CCN(C(=O)CC(c3ccccc3)c3ccccc3)CC2)CC1` [Compound 78, 1-(4-(4-tert-butylpiperazine-1-carbonyl)piperidin-1-yl)-3,3-diphenylpropan-1-one], the IC50 is, setting by setting: under setting [1], greater than 6450 nM; under setting [2], greater than 3340 nM.
Take `Cc1ccccc1C(CC(=O)N1CCC(C(=O)N2CCN(C(C)(C)C)CC2)CC1)c1ccccc1C` [Compound 79, 1-(4-(4-tert-butylpiperazine-1-carbonyl)piperidin-1-yl)-3,3-di-o-tolylpropan-1-one]: the IC50 is, setting by setting: under setting [1], 1480 nM; under setting [2], 940 nM.
As to `CC(C)(C)N1CCN(C(=O)C2CCN(C(=O)NC(c3ccccc3)c3ccccc3)CC2)CC1` [Compound 80, N-benzhydryl-4-(4-tert-butylpiperazin-1-carbonyl)piperidine-1-carboxamide], under setting [1], the half-inhibitory concentration (IC50) is 11600 nM.
In the case of `CC(C)(C)N1CCN(C(=O)C2CCN(C(=O)CC(c3ccc(F)cc3)c3ccc(F)cc3)CC2)CC1` [Compound 81, 1-(4-(4-tert-butylpiperazine-1-carbonyl)piperidin-1-yl)-3,3-bis(4-fluorophenyl)propan-1-one], the IC50 stood at 4400 nM under setting [1] and 2470 nM under setting [2].
Regarding `CC(C)(C)N1CCN(C(=O)C2CCN(C(=O)COC(c3ccc(F)cc3)c3ccc(F)cc3)CC2)CC1` [Compound 82, 2-(bis(4-fluorophenyl)methoxy)-1-(4-(4-tert-butylpiperazine-1-carbonyl)piperidin-1-yl)ethanone], the IC50 runs as follows: under setting [1], 2590 nM; under setting [2], 15600 nM.
For `COc1ccccc1C(CC(=O)N1CCC(C(c2ccccc2)N2CC(C)NC(C)C2)CC1)c1ccccc1OC` (stereo not shown) [Compound 83, 1-(4-((3,5-dimethylpiperazin-1-yl)(phenyl)methyl)piperidin-1-yl)-3,3-bis(2-methoxyphenyl)propan-1-one], the IC50 reads like this: under setting [1], 3000 nM; under setting [2], 1570 nM.
The matching figures for `COc1ccccc1C(CC(=O)N1CCC(C(=O)N2CCN(C(C)(C)C)CC2)CC1)c1ccccc1OC` [Compound 87, 1-(4-(4-tert-butylpiperazine-1-carbonyl)piperidin-1-yl)-3,3-bis(2-methoxyphenyl)propan-1-one]: 6910 nM and 2710 nM.
Take `Cc1ccccc1C(CC(=O)N1CCC(C(c2ccccc2)N2CCN(C(C)(C)C)CC2)CC1)c1ccccc1C` (stereo not shown) [Compound 101, 1-(4-((4-tert-butylpiperazin-1-yl)(phenyl)methyl)piperidin-1-yl)-3,3-di-o-tolylpropan-1-one]: the IC50 runs as follows: under setting [1], 1410 nM; under setting [2], 800 nM.
